According to PubChem BioAssay AID248 (DTP/NCI, 2004):
Toxic doses and inconclusive results are not listed. Cut-off read from the data, not from the text of the source: active = T/C of 150% or more; inactive = T/C below 125%.

Tested on: L1210 leukemia ip in BDF1 mice, survival T/C
Test: NCI In Vivo Anticancer Drug Screen. Data for tumor model L1210 Leukemia (intraperitoneal) in B6D2F1 (BDF1) mice
Conditions: endpoint: mean survival time, higher = longer survival
How it was run: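 Read-out is survival time, reported as the treated-group measurement over the vehicle-control measurement.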

[1] = dose: 100.0 mg/kg/injection, schedule: Q04DX003 (ip), vehicle: saline with Tween-80
[2] = dose: 200.0 mg/kg/injection, schedule: Q04DX003 (ip), vehicle: saline with Tween-80
[3] = dose: 50.0 mg/kg/injection, schedule: Q01DX001 (ip), vehicle: saline
[4] = dose: 100.0 mg/kg/injection, schedule: Q01DX001 (ip), vehicle: saline
[5] = dose: 200.0 mg/kg/injection, schedule: Q01DX001 (ip), vehicle: saline
[6] = dose: 100.0 mg/kg/injection, schedule: Q01DX009 (ip), vehicle: Klucel (hydroxypropylcellulose) (HPC)
[7] = dose: 200.0 mg/kg/injection, schedule: Q01DX009 (ip), vehicle: Klucel (hydroxypropylcellulose) (HPC)
[8] = dose: 100.0 mg/kg/injection, schedule: Q01DX009 (ip), vehicle: saline with Tween-80
[9] = dose: 200.0 mg/kg/injection, schedule: Q01DX009 (ip), vehicle: saline with Tween-80
[10] = dose: 400.0 mg/kg/injection, schedule: Q01DX009 (ip), vehicle: saline with Tween-80

Measured: T/C

CC(C)C/C=N/NC(=O)Cc1ccccc1
inactive: dose: 100.0 mg/kg/injection, schedule: Q01DX001 (ip), vehicle: other 101 % of control | dose: 200.0 mg/kg/injection, schedule: Q01DX001 (ip), vehicle: other 94 % of control | dose: 400.0 mg/kg/injection, schedule: Q01DX001 (ip), vehicle: other 101 % of control

Nc1cccc(-c2csc(N)n2)c1
inactive: dose: 100.0 mg/kg/injection, schedule: Q01DX001 (ip), vehicle: carboxymethylcellulose (CMC) 100 % of control | dose: 200.0 mg/kg/injection, schedule: Q01DX001 (ip), vehicle: carboxymethylcellulose (CMC) 100 % of control

C[N+](C)(C)c1ncnc2nc[nH]c12
active: dose: 180.0 mg/kg/injection, schedule: Q01DX Z (ip), vehicle: carboxymethylcellulose (CMC) 162 % of control | dose: 270.0 mg/kg/injection, schedule: Q01DX015 (ip), vehicle: saline 152 % of control
inactive: dose: 22.5 mg/kg/injection, schedule: Q01DX Z (ip), vehicle: saline 112 % of control | dose: 31.0 mg/kg/injection, schedule: Q01DX005 (ip), vehicle: saline 112 % of control | dose: 31.0 mg/kg/injection, schedule: Q01DX009 (ip), vehicle: saline 120 % of control | dose: 45.0 mg/kg/injection, schedule: Q01DX Z (ip), vehicle: saline 110 % of control | dose: 53.0 mg/kg/injection, schedule: Q01DX Z (ip), vehicle: carboxymethylcellulose (CMC) 110 % of control | dose: 62.0 mg/kg/injection, schedule: Q01DX005 (ip), vehicle: saline 110 % of control | dose: 62.0 mg/kg/injection, schedule: Q01DX009 (oral), vehicle: saline 109 % of control | dose: 62.0 mg/kg/injection, schedule: Q01DX009 (sc), vehicle: saline 109 % of control | dose: 80.0 mg/kg/injection, schedule: Q01DX Z (ip), vehicle: carboxymethylcellulose (CMC) 118 % of control | dose: 100.0 mg/kg/injection, schedule: Q## X008 (ip), vehicle: saline 110 % of control | dose: 100.0 mg/kg/injection, schedule: Q## X024 (ip), vehicle: saline 115 % of control | dose: 120.0 mg/kg/injection, schedule: Q01DX Z (ip), vehicle: carboxymethylcellulose (CMC) 118 % of control | dose: 125.0 mg/kg/injection, schedule: Q01DX001 (ip), vehicle: saline 96 % of control | dose: 125.0 mg/kg/injection, schedule: Q01DX001 (oral), vehicle: saline 116 % of control | dose: 125.0 mg/kg/injection, schedule: Q01DX001 (sc), vehicle: saline 106 % of control | dose: 125.0 mg/kg/injection, schedule: Q01DX005 (ip), vehicle: saline 124 % of control | dose: 125.0 mg/kg/injection, schedule: Q01DX009 (sc), vehicle: saline 118 % of control | dose: 125.0 mg/kg/injection, schedule: Q## X003 (ip), vehicle: saline 108 % of control | dose: 200.0 mg/kg/injection, schedule: Q## X008 (ip), vehicle: saline 109 % of control | dose: 250.0 mg/kg/injection, schedule: Q01DX001 (ip), vehicle: saline 107 % of control | dose: 250.0 mg/kg/injection, schedule: Q01DX001 (oral), vehicle: saline 110 % of control | dose: 250.0 mg/kg/injection, schedule: Q01DX001 (sc), vehicle: saline 109 % of control | dose: 250.0 mg/kg/injection, schedule: Q01DX009 (sc), vehicle: saline 123 % of control | dose: 250.0 mg/kg/injection, schedule: Q## X003 (ip), vehicle: saline 119 % of control | dose: 400.0 mg/kg/injection, schedule: Q## X008 (ip), vehicle: saline 120 % of control | dose: 500.0 mg/kg/injection, schedule: Q01DX001 (oral), vehicle: saline 112 % of control | dose: 800.0 mg/kg/injection, schedule: Q## X024 (ip), vehicle: saline 122 % of control | dose: 1000.0 mg/kg/injection, schedule: Q01DX001 (oral), vehicle: saline 124 % of control

Cc1ccc([N+](=O)[O-])cc1NC(=O)Nc1ccccc1C(N)=O
inactive: dose: 100.0 mg/kg/injection, schedule: Q04DX002 (ip), vehicle: Klucel (hydroxypropylcellulose) (HPC) 114 % of control | dose: 200.0 mg/kg/injection, schedule: Q04DX002 (ip), vehicle: Klucel (hydroxypropylcellulose) (HPC) 103 % of control | dose: 400.0 mg/kg/injection, schedule: Q04DX002 (ip), vehicle: Klucel (hydroxypropylcellulose) (HPC) 94 % of control

Cc1ccc(NC(=O)Oc2ccc(OC(=O)Cc3ccccc3)cc2)cc1NC(=O)Oc1ccc(OC(=O)Cc2ccccc2)cc1
inactive: dose: 100.0 mg/kg/injection, schedule: Q01DX009 (ip), vehicle: other 96 % of control | dose: 200.0 mg/kg/injection, schedule: Q01DX009 (ip), vehicle: other 98 % of control | dose: 400.0 mg/kg/injection, schedule: Q01DX009 (ip), vehicle: other 93 % of control

CCCCC(=O)Nc1cccc(OC(=O)NC)c1
inactive: [1] 92 % of control | [2] 95 % of control | dose: 400.0 mg/kg/injection, schedule: Q04DX003 (ip), vehicle: saline with Tween-80 87 % of control

N#CC(Cc1ccccc1)c1ccccc1 (stereo not drawn)
inactive: [3] 97 % of control | [4] 106 % of control | [5] 101 % of control

CCSc1nc(N)c(C(N)=O)cc1C#N
inactive: [6] 95 % of control | dose: 100.0 mg/kg/injection, schedule: Q04DX003 (ip), vehicle: Klucel (hydroxypropylcellulose) (HPC) 101 % of control | [7] 95 % of control | dose: 200.0 mg/kg/injection, schedule: Q04DX003 (ip), vehicle: Klucel (hydroxypropylcellulose) (HPC) 98 % of control | dose: 400.0 mg/kg/injection, schedule: Q04DX003 (ip), vehicle: Klucel (hydroxypropylcellulose) (HPC) 97 % of control

F[Si]1(c2cccc(Br)c2)c2ccccc2-c2ccccc21
inactive: dose: 100.0 mg/kg/injection, schedule: Q01DX001 (ip), vehicle: saline with Tween-80 103 % of control | [8] 103 % of control | dose: 200.0 mg/kg/injection, schedule: Q01DX001 (ip), vehicle: saline with Tween-80 100 % of control | [9] 101 % of control | dose: 400.0 mg/kg/injection, schedule: Q01DX001 (ip), vehicle: saline with Tween-80 100 % of control | [10] 104 % of control

CC(=O)c1cccc(NC(=O)Nc2ccc(F)c([N+](=O)[O-])c2)c1
inactive: [6] 95 % of control | [7] 96 % of control

Cc1cccc(C)c1OCC1=NCCN1
inactive: dose: 12.0 mg/kg/injection, schedule: Q01DX009 (ip), vehicle: saline 105 % of control | dose: 25.0 mg/kg/injection, schedule: Q01DX009 (ip), vehicle: saline 111 % of control | dose: 50.0 mg/kg/injection, schedule: Q01DX009 (ip), vehicle: saline 108 % of control

CC1CCOC(C)O1 (stereo not drawn)
inactive: dose: 100.0 mg/kg/injection, schedule: Q01DX009 (ip), vehicle: saline 103 % of control | dose: 100.0 mg/kg/injection, schedule: Q04DX003 (ip), vehicle: saline 100 % of control | dose: 200.0 mg/kg/injection, schedule: Q01DX009 (ip), vehicle: saline 91 % of control | dose: 200.0 mg/kg/injection, schedule: Q04DX003 (ip), vehicle: saline 94 % of control | dose: 400.0 mg/kg/injection, schedule: Q01DX009 (ip), vehicle: saline 96 % of control | dose: 400.0 mg/kg/injection, schedule: Q04DX003 (ip), vehicle: saline 94 % of control

Cc1ccc(C(=O)C(F)(F)F)cc1
inactive: [1] 96 % of control | [2] 102 % of control

CCCCCCCC/C=C\CCCCCCCC(=O)OCC1CCCO1 (stereo not drawn)
inactive: [8] 95 % of control | [9] 90 % of control | [10] 92 % of control

CC(=O)Nc1ccc(-c2cnc3ccccc3c2)cc1
inactive: dose: 5.0 mg/kg/injection, schedule: Q01DX001 (ip), vehicle: saline 106 % of control | dose: 10.0 mg/kg/injection, schedule: Q01DX001 (ip), vehicle: saline 106 % of control | dose: 20.0 mg/kg/injection, schedule: Q01DX001 (ip), vehicle: saline 97 % of control | dose: 40.0 mg/kg/injection, schedule: Q01DX001 (ip), vehicle: saline 90 % of control | dose: 80.0 mg/kg/injection, schedule: Q01DX001 (ip), vehicle: saline 95 % of control

COc1ccc(CN2CCCN(Cc3ccc(OC)cc3OC)C2c2ccncc2)c(OC)c1
inactive: [3] 94 % of control | [4] 97 % of control | [5] 105 % of control | dose: 400.0 mg/kg/injection, schedule: Q01DX001 (ip), vehicle: saline 103 % of control
